For 12 compounds, TGI results are on record in PubChem BioAssay (NCI).

What all share (experiment): NCI-60 cell line screen, 48 h
The subject of assay [1] is HCT-15 colon.
Assay [2] concerns SF-295 CNS.
The subject of assay [3] is HCT-116 colon.
For assay [4], the system named is SN12C renal.
The subject of assay [5] is UO-31 renal.
Assay [6] has as its system LOX IMVI melanoma.
Assay [7] concerns NCI-H226 lung.
Assay [8] relates to UACC-257 melanoma.
The test system of assay [9] is OVCAR-8 ovarian.
In assay [10] the test system is OVCAR-4 ovarian.
Assay [11] has as its system M14 melanoma.
In assay [12] the test system is DU-145 prostate.

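A five-concentration, 48-hour dose response in 96-well plates underlies each endpoint, interpolated linearly between surrounding concentrations. TGI marks complete inhibition of growth.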 Some results are limits rather than exact numbers.

Regarding `O=S(=O)(Nc1ccccc1S(=O)(=O)c1ccccc1)c1ccccc1`, the TGI in [1], in [2], in assay [3], in assay [4], in [5] and in [6] was over 100 µM in each case. The TGI in assay [7], in assay [8], in [9], in [10], in assay [11] and in assay [12] was over 100 µM in each case.

For the compound `Cc1ccc(S(=O)(=O)C2=c3ncccc3=C3C(=O)c4ccccc4C(=O)C32)cc1` (stereo not given), the TGI in [1], in assay [2], in [3], in assay [4], in assay [5] and in assay [6] was over 100 µM in each case. The TGI in [7] is over 100 µM; in [8] it was over 100 µM; in assay [9], over 100 µM; in assay [10], 64.4 µM; in [11], over 100 µM; in assay [12], over 100 µM.

`N#Cc1c(N2CCOCC2)ncn(-c2ccccc2)c1=O`: the TGI in assay [1], in [2], in assay [3], in assay [4], in assay [5] and in assay [6] was over 100 µM each time. The TGI in assay [7], in [8], in assay [9], in assay [11] and in assay [12] was over 100 µM each time.

Take `CC(=O)OC1CC(OC2C(O)CC(OC3C(O)CC(OC4CCC5(C)C(CCC6C5CC(O)C5(C)C(C7=CC(=O)OC7)CCC65O)C4)OC3C)OC2C)OC(C)C1O` (stereo not given) (tested in a mixture with another compound): the TGI in assay [1] came out at 0.107 µM; in [2] it was 0.133 µM; in assay [3], 0.039 µM; in assay [5], 0.169 µM; in assay [6] it was 0.0944 µM; in assay [7] it was 0.176 µM. The TGI in assay [8] came out at 0.305 µM; in [9], 0.129 µM; in assay [10], 0.0538 µM; in [11], 0.231 µM; in assay [12], 0.0377 µM.

As to `Cc1cc(S(=O)(=O)Nc2nc(N)n(C)n2)c(S)cc1Cl`, the TGI in assay [1], in assay [2], in assay [3], in assay [4], in [5] and in [6] was over 10 µM throughout. In addition, the TGI in [7], in assay [8], in assay [9], in assay [10], in [11] and in assay [12] was over 10 µM in each case.

Turning to `C=CCC1(O)c2cccc(O)c2C(=O)c2c(O)cccc21`, the TGI in [1] is 47.9 µM; in [2], over 100 µM; in assay [3], 57.7 µM; in assay [5], over 100 µM; in [6] it was 57.2 µM; in assay [7], over 100 µM. Moreover, the TGI in [8] is 68.3 µM; in assay [9] it was over 100 µM; in assay [10], over 100 µM; in assay [11], 59.3 µM; in assay [12], over 100 µM.

For the compound `Cc1cc2c3c(ccc4ncc(c43)CN2c2ccc(NS(C)(=O)=O)cc2)[nH]1`, the TGI in [1] was over 100 µM; in assay [2] it was over 100 µM; in assay [3], 44.1 µM; in assay [5] it was 78.4 µM; in assay [6] it was over 100 µM; in assay [7] it was 78.3 µM. Moreover, the TGI in assay [8], in assay [9], in [10], in [11] and in assay [12] was over 100 µM each time.

For `Cn1ncc2c(NCCc3ccccc3)nc(Cl)nc21`, the TGI in assay [1] was over 100 µM; in assay [2], 67.7 µM; in assay [3], over 100 µM; in assay [4] it was over 100 µM; in assay [5], 73 µM; in [6], over 100 µM. The TGI is 76.1 µM in [7]; 12.3 µM in assay [8]; over 100 µM in assay [9]; 57.7 µM in assay [10]; 39.7 µM in assay [11]; over 100 µM in [12].

Consider `CCOC(=O)c1sc2nc(SC)nc(Nc3ccc(OC)c(OC)c3)c2c1N`, for which the TGI in assay [1] was over 100 µM; in assay [2], 45.6 µM; in assay [3], over 100 µM; in [4] it was over 100 µM; in [5] it was over 100 µM; in assay [6] it was over 100 µM. Besides, the TGI in assay [7], in assay [8], in assay [9], in assay [10], in assay [11] and in [12] was over 100 µM throughout.

Regarding `COC(=O)[C@]1(c2cc3ccccc3n2S(=O)(=O)c2ccccc2)CC2CCC1NC2` (stereo not given in full), the TGI was determined as 40.5 µM in assay [1]; 31.2 µM in assay [2]; 26.6 µM in assay [3]; 29.4 µM in assay [4]; 22.3 µM in assay [5]; 36.4 µM in [6]. Besides, the TGI in assay [7] turned out to be 33.2 µM; in assay [8], 32 µM; in [9], 32.3 µM; in assay [10], 48.3 µM; in assay [11], 27.2 µM; in [12], 30.4 µM.

For the compound `COc1cc(OC)c(/C=N/N=C(\N)NO)c(OC)c1`, the TGI was over 100 µM in assay [1]; over 100 µM in assay [2]; over 100 µM in assay [3]; over 100 µM in assay [4]; 81.2 µM in assay [5]; over 100 µM in assay [6]. The TGI in assay [7], in [8], in [9], in assay [10], in [11] and in [12] was over 100 µM each time.

As to `COc1cc2c[n+](C)c3c4ccccc4ccc3c2cc1OC`, the TGI in assay [1] is over 100 µM; in assay [2], over 73.3 µM; in assay [3], over 67.7 µM; in assay [4], 7.95 µM; in [5], over 100 µM; in assay [6] it was 45 µM. Moreover, the TGI in assay [7] came out at 14.4 µM; in assay [8] it was 21 µM; in assay [9], 16.8 µM; in assay [10] it was 28.6 µM; in [11], 42.6 µM; in [12] it was 14 µM.
